Reference: the supplement of paper PMC10307832

Legend:
Experiment in all cases: relative viability (nuclei count vs DMSO), 5 days (fraction); higher = more cells survive
RO-3306 + Pemetrexed = compound: C1=CC2=C(C=CC(=C2)C=C3C(=O)NC(=NCC4=CC=CS4)S3)N=C1 [RO-3306] + Nc1nc2[nH]cc(CCc3ccc(C(=O)N[C@@H](CCC(=O)O)C(=O)O)cc3)c2c(=O)[nH]1 [Pemetrexed] (partner 0.2 µM)
How it was run: (§1)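 Relative viability was taken as the ratio of nuclei in treated wells to nuclei in vehicle wells. Lung cancer cell lines in 1536-well plates received compounds by pin tool one day after seeding, either one drug alone or a fixed anchor-drug dose plus five library-drug doses (not always all listed) in √10 steps. Nuclei were counted on 4× images after 5 days of treatment, and values are medians of duplicate plates.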

[1] = compound: O=S(=O)(c1ccccc1)N(CC(F)(F)F)c1ccc(C(O)(C(F)(F)F)C(F)(F)F)cc1 + CC(=O)c1c(C)c2cnc(Nc3ccc(N4CCNCC4)cn3)nc2n(C2CCCC2)c1=O [Palbociclib] (partner 0.5 µM)
How it was run: as §1

RO-3306 + Luminespib = compound: C1=CC2=C(C=CC(=C2)C=C3C(=O)NC(=NCC4=CC=CS4)S3)N=C1 [RO-3306] + CCNC(=O)c1noc(-c2cc(C(C)C)c(O)cc2O)c1-c1ccc(CN2CCOCC2)cc1 [Luminespib] (partner 0.01 µM)
How it was run: as §1

[2] = compound: O=S(=O)(c1ccccc1)N(CC(F)(F)F)c1ccc(C(O)(C(F)(F)F)C(F)(F)F)cc1 + CS(=O)(=O)N1CCN(Cc2cc3nc(-c4cccc5[nH]ncc45)nc(N4CCOCC4)c3s2)CC1 [Pictilisib] (partner 1 µM)
How it was run: as §1

Cell Line: 201T
- relative viability (RO-3306 + Pemetrexed; first compound 0.01 µM): 0.277
- relative viability (RO-3306 + Pemetrexed; first compound 0.03162 µM): 0.315
- relative viability (RO-3306 + Pemetrexed; first compound 0.1 µM): 0.358
- relative viability (RO-3306 + Pemetrexed; first compound 0.3162 µM): 0.32
- relative viability (RO-3306 + Pemetrexed; first compound 1 µM): 0.41
- relative viability ([1]; first compound 0.8 µM): 0.365
- relative viability ([1]; first compound 2.53 µM): 0.354
- relative viability ([1]; first compound 8 µM): 0.371
- relative viability (RO-3306 + Luminespib; first compound 0.01 µM): 1.02
- relative viability (RO-3306 + Luminespib; first compound 0.03162 µM): 1.05
- relative viability (RO-3306 + Luminespib; first compound 0.1 µM): 1.02
- relative viability (RO-3306 + Luminespib; first compound 0.3162 µM): 1.01
- relative viability (RO-3306 + Luminespib; first compound 1 µM): 1.05
- relative viability ([2]; first compound 0.8 µM): 0.632
- relative viability ([2]; first compound 2.53 µM): 0.628
- relative viability ([2]; first compound 8 µM): 0.82

Cell Line: A549
- relative viability ([2]; first compound 0.8 µM): 0.609
- relative viability ([2]; first compound 2.53 µM): 0.473
- relative viability ([2]; first compound 8 µM): 0.567

Cell Line: A-427
- relative viability (RO-3306 + Pemetrexed; first compound 0.01 µM): 0.942
- relative viability (RO-3306 + Pemetrexed; first compound 0.03162 µM): 0.902
- relative viability (RO-3306 + Pemetrexed; first compound 0.1 µM): 0.966
- relative viability (RO-3306 + Pemetrexed; first compound 0.3162 µM): 0.937
- relative viability (RO-3306 + Pemetrexed; first compound 1 µM): 0.607
- relative viability ([1]; first compound 0.8 µM): 0.449
- relative viability ([1]; first compound 2.53 µM): 0.454
- relative viability ([1]; first compound 8 µM): 0.476
- relative viability (RO-3306 + Luminespib; first compound 0.01 µM): 0.94
- relative viability (RO-3306 + Luminespib; first compound 0.03162 µM): 0.867
- relative viability (RO-3306 + Luminespib; first compound 0.1 µM): 0.928
- relative viability (RO-3306 + Luminespib; first compound 0.3162 µM): 0.884
- relative viability (RO-3306 + Luminespib; first compound 1 µM): 1
- relative viability ([2]; first compound 0.8 µM): 0.708
- relative viability ([2]; first compound 2.53 µM): 0.677
- relative viability ([2]; first compound 8 µM): 0.822

Cell Line: ABC-1
- relative viability ([1]; first compound 2.53 µM): 0.656
- relative viability ([1]; first compound 8 µM): 0.714
- relative viability (RO-3306 + Luminespib; first compound 0.01 µM): 0.548
- relative viability (RO-3306 + Luminespib; first compound 0.03162 µM): 0.719
- relative viability (RO-3306 + Luminespib; first compound 0.1 µM): 0.527
- relative viability (RO-3306 + Luminespib; first compound 0.3162 µM): 0.658
- relative viability (RO-3306 + Luminespib; first compound 1 µM): 0.898
- relative viability ([2]; first compound 0.8 µM): 0.7
- relative viability ([2]; first compound 2.53 µM): 0.602
- relative viability ([2]; first compound 8 µM): 0.755

Cell Line: BEN
- relative viability (RO-3306 + Pemetrexed; first compound 0.01 µM): 0.634
- relative viability (RO-3306 + Pemetrexed; first compound 0.03162 µM): 0.735
- relative viability (RO-3306 + Pemetrexed; first compound 0.1 µM): 0.728
- relative viability (RO-3306 + Pemetrexed; first compound 0.3162 µM): 0.769
- relative viability (RO-3306 + Pemetrexed; first compound 1 µM): 0.803
- relative viability ([1]; first compound 0.8 µM): 0.506
- relative viability ([1]; first compound 2.53 µM): 0.504
- relative viability ([1]; first compound 8 µM): 0.454
- relative viability (RO-3306 + Luminespib; first compound 0.01 µM): 0.331
- relative viability (RO-3306 + Luminespib; first compound 0.03162 µM): 0.337
- relative viability (RO-3306 + Luminespib; first compound 0.1 µM): 0.33
- relative viability (RO-3306 + Luminespib; first compound 0.3162 µM): 0.4
- relative viability (RO-3306 + Luminespib; first compound 1 µM): 0.447
- relative viability ([2]; first compound 0.8 µM): 0.585
- relative viability ([2]; first compound 2.53 µM): 0.533
- relative viability ([2]; first compound 8 µM): 0.616

Cell Line: CAL-12T
- relative viability (RO-3306 + Pemetrexed; first compound 0.01 µM): 1.38
- relative viability (RO-3306 + Pemetrexed; first compound 0.03162 µM): 1.35
- relative viability (RO-3306 + Pemetrexed; first compound 0.1 µM): 1.17
- relative viability (RO-3306 + Pemetrexed; first compound 0.3162 µM): 1.15
- relative viability (RO-3306 + Pemetrexed; first compound 1 µM): 1.26
- relative viability ([1]; first compound 0.8 µM): 0.318
- relative viability ([1]; first compound 2.53 µM): 0.33
- relative viability ([1]; first compound 8 µM): 0.412
- relative viability (RO-3306 + Luminespib; first compound 0.01 µM): 0.68
- relative viability (RO-3306 + Luminespib; first compound 0.03162 µM): 0.517
- relative viability (RO-3306 + Luminespib; first compound 0.1 µM): 0.228
- relative viability (RO-3306 + Luminespib; first compound 0.3162 µM): 0.433
- relative viability (RO-3306 + Luminespib; first compound 1 µM): 0.604
- relative viability ([2]; first compound 2.53 µM): 0.342
- relative viability ([2]; first compound 8 µM): 0.542

Cell Line: COR-L23
- relative viability (RO-3306 + Pemetrexed; first compound 0.01 µM): 0.179
- relative viability (RO-3306 + Pemetrexed; first compound 0.03162 µM): 0.216
- relative viability (RO-3306 + Pemetrexed; first compound 0.1 µM): 0.214
- relative viability (RO-3306 + Pemetrexed; first compound 0.3162 µM): 0.194
- relative viability (RO-3306 + Pemetrexed; first compound 1 µM): 0.187
- relative viability ([1]; first compound 0.8 µM): 0.332
- relative viability ([1]; first compound 2.53 µM): 0.269
- relative viability ([1]; first compound 8 µM): 0.285
- relative viability (RO-3306 + Luminespib; first compound 0.01 µM): 0.648
- relative viability (RO-3306 + Luminespib; first compound 0.03162 µM): 0.591
- relative viability (RO-3306 + Luminespib; first compound 0.1 µM): 0.778
- relative viability (RO-3306 + Luminespib; first compound 0.3162 µM): 0.868
- relative viability (RO-3306 + Luminespib; first compound 1 µM): 0.562
- relative viability ([2]; first compound 0.8 µM): 1.23
- relative viability ([2]; first compound 2.53 µM): 0.796
- relative viability ([2]; first compound 8 µM): 0.901

Cell Line: COR-L 105
- relative viability (RO-3306 + Pemetrexed; first compound 0.01 µM): 1.25
- relative viability (RO-3306 + Pemetrexed; first compound 0.03162 µM): 0.993
- relative viability (RO-3306 + Pemetrexed; first compound 0.1 µM): 1.04
- relative viability (RO-3306 + Pemetrexed; first compound 0.3162 µM): 0.913
- relative viability (RO-3306 + Pemetrexed; first compound 1 µM): 0.95
- relative viability ([1]; first compound 0.8 µM): 0.328
- relative viability ([1]; first compound 2.53 µM): 0.411
- relative viability ([1]; first compound 8 µM): 0.378
- relative viability (RO-3306 + Luminespib; first compound 0.01 µM): 1.07
- relative viability (RO-3306 + Luminespib; first compound 0.03162 µM): 0.885
- relative viability (RO-3306 + Luminespib; first compound 0.1 µM): 0.606
- relative viability (RO-3306 + Luminespib; first compound 0.3162 µM): 0.65
- relative viability (RO-3306 + Luminespib; first compound 1 µM): 0.547
- relative viability ([2]; first compound 0.8 µM): 0.44
- relative viability ([2]; first compound 2.53 µM): 0.397
- relative viability ([2]; first compound 8 µM): 0.418

Cell Line: Calu-6
- relative viability ([2]; first compound 0.8 µM): 0.839
- relative viability ([2]; first compound 2.53 µM): 0.851
- relative viability ([2]; first compound 8 µM): 0.691

Cell Line: ChaGo-K-1
- relative viability (RO-3306 + Pemetrexed; first compound 0.01 µM): 0.319
- relative viability (RO-3306 + Pemetrexed; first compound 0.03162 µM): 0.266
- relative viability (RO-3306 + Pemetrexed; first compound 0.1 µM): 0.331
- relative viability (RO-3306 + Pemetrexed; first compound 0.3162 µM): 0.259
- relative viability (RO-3306 + Pemetrexed; first compound 1 µM): 0.249
- relative viability ([1]; first compound 0.8 µM): 1
- relative viability ([1]; first compound 2.53 µM): 0.895
- relative viability ([1]; first compound 8 µM): 0.877
- relative viability (RO-3306 + Luminespib; first compound 0.01 µM): 0.594
- relative viability (RO-3306 + Luminespib; first compound 0.03162 µM): 0.585
- relative viability (RO-3306 + Luminespib; first compound 0.1 µM): 0.469
- relative viability (RO-3306 + Luminespib; first compound 0.3162 µM): 0.56
- relative viability (RO-3306 + Luminespib; first compound 1 µM): 0.32
- relative viability ([2]; first compound 0.8 µM): 0.647
- relative viability ([2]; first compound 2.53 µM): 0.693
- relative viability ([2]; first compound 8 µM): 1.24

Cell Line: EBC-1
- relative viability ([2]; first compound 0.8 µM): 0.286
- relative viability ([2]; first compound 2.53 µM): 0.266
- relative viability ([2]; first compound 8 µM): 0.284

Cell Line: EKVX
- relative viability (RO-3306 + Pemetrexed; first compound 0.01 µM): 0.416
- relative viability (RO-3306 + Pemetrexed; first compound 0.03162 µM): 0.306
- relative viability (RO-3306 + Pemetrexed; first compound 0.1 µM): 0.405
- relative viability (RO-3306 + Pemetrexed; first compound 0.3162 µM): 0.444
- relative viability (RO-3306 + Pemetrexed; first compound 1 µM): 0.454
- relative viability ([1]; first compound 0.8 µM): 0.401
- relative viability ([1]; first compound 2.53 µM): 0.341
- relative viability ([1]; first compound 8 µM): 0.324
- relative viability (RO-3306 + Luminespib; first compound 0.01 µM): 1.02
- relative viability (RO-3306 + Luminespib; first compound 0.03162 µM): 0.689
- relative viability (RO-3306 + Luminespib; first compound 0.1 µM): 0.841
- relative viability (RO-3306 + Luminespib; first compound 0.3162 µM): 0.959
- relative viability (RO-3306 + Luminespib; first compound 1 µM): 0.905
- relative viability ([2]; first compound 0.8 µM): 0.367
- relative viability ([2]; first compound 2.53 µM): 0.363
- relative viability ([2]; first compound 8 µM): 0.303
